Measurements from article PMC9866541, “Flavonoid Derivatives as New Potent Inhibitors of Cysteine Proteases: An Important Step toward the Design of New Compounds for the Treatment of Leishmaniasis” (Microorganisms, 2023).
Values belong to the compound of their own block, whether it stands above or below them.

Tests used:
[1] = test system: Promastigote forms of L. amazonensis; experiment: Antipromastigote assay (MTT); type: cell-based, Leishmania amazonensis; conditions: for IC50: Leishmania amazonensis, L. amazonensis promastigotes, 72 h, 26 °C, MTT, highest concentration tested 10 µg/mL, read-out: Promastigote IC50; for SI (selectivity index): GL50 in NIH/3T3 cells / IC50 in extracellular promastigotes
Protocol: A standard strain of Leishmania (Leishmania amazonensis) (IFLA/BR/1967/PH8) was used for the evaluation of in vitro antileishmanial activity. The promastigote forms were grown in Schneider’s insect medium (Sigma-Aldrich®, SP/Brazil) supplemented with 20% foetal bovine serum (Sigma-Aldrich®, SP/Brazil), 10,000 U/mL penicillin, and 10 mg/mL streptomycin (Sigma-Aldrich®, SP/Brazil).
Promastigote forms of L. amazonensis in the log growth phase (10^e6 parasites/mL) were added to 96-well plates and incubated in sextuplicate with the test samples (0.25–10.0 µg/mL). The microplates were incubated at 26 °C for 72 h. Cell viability was assessed by adding 5 mg/mL of MTT ([3-(4,5-dimethylthiazol-2-yl)-2,5-diphenyltetrazolium bromide] (Sigma-Aldrich® SP/Brazil). Results were expressed as the half-maximal inhibitory concentration (IC50) calculated by a nonlinear dose–response regression curve using the statistical program GraphPad PRISM 5.0. Pentamidine (Sigma-Aldrich ® SP/Brazil; 0.25–10 µg/mL) was used as a positive control, and pure Schneider culture medium was used as a negative control.

NIH/3T3 fibroblasts = experiment: Cytotoxicity on mammalian cells (sulphorhodamine B); type: cell-based; conditions: for NIH/3T3 Cells GL50: 48 h, concentration that inhibited cell growth by 50%
Protocol: The cytotoxic effect of the test samples was evaluated on NIH/3T3 fibroblasts, obtained from the Rio de Janeiro Cell Bank (Brazil). Cells were seeded in 96-well plates ([…]). After 24 h of fixation, cells were incubated for 48 h with test samples at 0.25–250 µg/mL, in triplicate. […] Doxorubicin (0.025–25 µg/mL was used as a positive control. Cells were fixed by adding 20% trichloroacetic acid and were subsequently stained with sulphorhodamine B (0.1%) diluted in acetic acid after 48 h of exposure. Absorbance values were read on the PT-READER microplate instrument (Thermoplate®), and growth percentages were calculated according to procedures in the literature. Cytotoxicity activity was expressed as the concentration of drug that inhibited cell growth by 50% (GL50), and growth was determined by nonlinear regression using Origin 6.0 software (OriginLab). The statistical significance was analysed using an unpaired Student’s t-test or a one-way analysis of variance. A p-value < 0.05 was considered statistically relevant. In addition, the SI was calculated using the ratio between cytotoxicity in NHI-3T3 cells (GL50) and activity in the parasite forms (IC50).

rCPB2.8 [2] = target: T1, rCPB2.8 (Leishmania mexicana, UniProt P36400); experiment: Determination of IC50 on rCPB2.8 (Z-FR-AMC); type: biochemical
T1 construct: recombinant enzymes (r) lacking the C-terminal region
Protocol: Cysteine proteases rCPB2.8, rCPB3, and rH84Y were assayed in 100 mM sodium acetate buffer containing 5 mM EDTA, 100 mM NaCl, 0.01% Triton X-100, and 20% glycerol, at pH 5.5. The enzymes were pre-incubated in the presence of 5 mM DTT for 5 min at 37 °C in a 1 mL final volume with constant stirring. Enzyme activities were monitored using fluorogenic probe Z-FR-AMC (9.25 µM final concentration), and the fluorescence was monitored by spectrofluorometry using fluorometer F2700 (Hitachi, Tokyo, Japan) set to λEx = 360 nm and λEm = 480 nm. The IC50 evaluation was performed using a progressive increase in the concentration of the compounds; the IC50 values were calculated using nonlinear regression, and the data were analysed by Grafit 5.0.13 software using Equation (1). (1) y=100%/1+(x/IC50)^S.

rCPB3 = rCPB3 (Leishmania mexicana, UniProt P36400, D186N/D189S/N185D, form not given); experiment: Enzyme kinetics and mechanism of inhibition of rCPB3; type: biochemical; conditions: for α: factor of formation of the ESI complex; on mechanism: key: NCPC: non-competitive inhibition with positive cooperativity; SLNC: simple linear non-competitive inhibition
Protocol: (§1) Studies of cysteine proteases rCPB2.8, rCPB3, and rH84Y inhibition kinetics were performed in different concentrations of Z-FR-AMC in the presence and absence of compounds using 100 mM sodium acetate buffer containing 5 mM EDTA, 100 mM NaCl, 0.01% Triton X-100, and 20% glycerol, at pH 5.5. Aliquots of the enzymes were pre-incubated with 5 mM DTT for 5 min at 37 °C. For every kinetic measurement, the compounds were pre-incubated with each enzyme for 10 min before adding the substrate. All kinetic assays were performed in duplicate. Inhibition constants were determined using different equations, depending on the inhibition mechanism. The assumed KM values of rCPB2.8, rCPB3, and rH84Y for Z-FR-AMC were 3.23 µM, 2.99 µM, and 2.80 µM, respectively. The data of the activity rate and substrate concentration generated rectangular hyperbolic profiles that were linearised using the Lineweaver–Burk double-reciprocal plot. The replot profiles of the slope vs. inhibitor and intercept vs. inhibitor provided Ki and αKi parameters, respectively. If the replots present a parabolic profile, the system involves the participation of a second molecule of the compound, which can bind the enzyme complexed to the first compound (EI), forming IEI, and bind to the ESI complex, forming IESI. Linearisation is required, generating the 1/Kslope vs. inhibitor and 1/Kintercept vs. inhibitor replots, according to Equations (2) and (3). (2) 1/Kslope=1/Ki+[I]/βKi2, (3) 1/Kintercept=1/αKi+[I]/αγKi2, where Ki is the inhibitory constant, [I] is the concentration of inhibitor, α is the factor of formation of the ESI complex (enzyme–substrate–inhibitor complex), β is the factor of formation of the IEI complex (inhibitor–enzyme–inhibitor complex), and γ is the factor of formation of the IESI complex (inhibitor–enzyme–substrate–inhibitor complex) according to the general mechanism (Figure 8). Furthermore, β and γ measure the cooperativity between the binding of the first and second inhibitor molecules to form IEI and IESI, respectively.

rH84Y = rH84Y (Leishmania mexicana, UniProt P36400, D186N/D189S/H209Y/N185D, form not given); experiment: Enzyme kinetics and mechanism of inhibition of rH84Y; type: biochemical; conditions: for α: factor of formation of the ESI complex; on mechanism: key: NCPC: non-competitive inhibition with positive cooperativity; SLNC: simple linear non-competitive inhibition
Protocol: as §1

rCPB2.8 [3] = target: T1, rCPB2.8; experiment: Enzyme kinetics and mechanism of inhibition of rCPB2.8; type: biochemical; conditions: for α: factor of formation of the ESI complex; for β: factor of formation of the IEI complex; for γ: factor of formation of the IESI complex; on mechanism: key: NCPC: non-competitive inhibition with positive cooperativity; SLNC: simple linear non-competitive inhibition
Protocol: as §1

[4] = factor of formation of the IEI complex
[5] = factor of formation of the IESI complex

Sequence of rH84Y (P36400 126-343 D186N/D189S/H209Y/N185D): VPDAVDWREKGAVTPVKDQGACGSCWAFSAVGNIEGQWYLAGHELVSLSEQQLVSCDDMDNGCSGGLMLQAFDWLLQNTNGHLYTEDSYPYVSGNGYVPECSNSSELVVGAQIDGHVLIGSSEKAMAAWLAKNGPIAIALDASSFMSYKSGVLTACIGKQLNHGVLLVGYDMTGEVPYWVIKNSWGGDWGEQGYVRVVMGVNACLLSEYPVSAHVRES
Sequence of rCPB3 (P36400 126-343 D186N/D189S/N185D): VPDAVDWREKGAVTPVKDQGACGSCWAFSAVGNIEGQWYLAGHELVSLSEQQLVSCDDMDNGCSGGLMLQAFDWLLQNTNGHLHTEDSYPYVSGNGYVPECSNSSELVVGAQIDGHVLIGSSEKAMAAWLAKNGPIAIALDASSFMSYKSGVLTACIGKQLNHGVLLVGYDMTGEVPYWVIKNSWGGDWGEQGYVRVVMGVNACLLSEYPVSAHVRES
T1 sequence (P36400 126-343): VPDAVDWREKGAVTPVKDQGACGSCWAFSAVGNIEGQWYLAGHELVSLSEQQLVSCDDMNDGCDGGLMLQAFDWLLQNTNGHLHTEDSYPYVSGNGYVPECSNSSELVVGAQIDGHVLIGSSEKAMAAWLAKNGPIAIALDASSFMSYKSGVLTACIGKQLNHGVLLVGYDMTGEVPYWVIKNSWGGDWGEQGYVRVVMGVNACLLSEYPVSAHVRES

- IC50 [1]: 100 nM
Compound: C[C@@H]1[C@H](O)[C@@H](C)/C=C/C=C/C=C/C=C/C=C/C=C/C=C/[C@H](O[C@@H]2O[C@H](C)[C@@H](O)[C@H](N)[C@@H]2O)C[C@@H]2O[C@](O)(C[C@@H](O)C[C@@H](O)[C@H](O)CC[C@@H](O)C[C@@H](O)CC(=O)O[C@H]1C)C[C@H](O)[C@H]2C(=O)O [Amphotericin B, reference compound]

Compound: O=C(/C=C/c1ccc2c(c1)OCO2)c1ccc(Cl)cc1 [Compound 1b, (E)-3-(benzo[d][1, 3]dioxol-5-yl)-1-(4-chlorophenyl)prop-2-en-1-one]
- IC50 [1]: > 10 µg/mL
- NIH/3T3 Cells GL50 (NIH/3T3 fibroblasts): 811.27 µM
- IC50 (rCPB2.8 [2]): 7420 ± 250 nM

Compound: COc1ccc(/C=C/C(=O)c2ccccc2O)cc1 [Compound 2a, (E)-1-(2-hydroxyphenyl)-3-(4-methoxyphenyl)prop-2-en-1-one]
- SI (selectivity index) [1]: 1324
- IC50 [1]: 710 nM
- NIH/3T3 Cells GL50 (NIH/3T3 fibroblasts): 940.14 µM
- IC50 (rCPB2.8 [2]): 2350 ± 190 nM

Compound: O=C(/C=C/c1ccc2c(c1)OCO2)c1ccccc1O [Compound 2b, (E)-3-(benzo[d][1, 3]dioxol-5-yl)-1-(2-hydroxyphenyl)prop-2-en-1-one]
- IC50 [1]: > 10 µg/mL
- NIH/3T3 Cells GL50 (NIH/3T3 fibroblasts): 910.58 µM
- IC50 (rCPB2.8 [2]): 20600 ± 1060 nM
- Times less efficient in inhibiting rCPB2.8 than compound 2a (rCPB2.8 [2]; ratio of IC50 values): 8.78 times

Compound: COc1ccc(/C=C/C(=O)c2cc(Cl)ccc2O)cc1 [Compound 3a, (E)-1-(5-chloro-2-hydroxyphenyl)-3-(4-methoxyphenyl)prop-2-en-1-one]
- SI (selectivity index) [1]: >1443.10
- IC50 [1]: 600 nM
- NIH/3T3 Cells GL50 (NIH/3T3 fibroblasts): >865.86 µM
- Cytotoxicity against mammal cells (in words) (NIH/3T3 fibroblasts; NIH/3T3 cells): noncytotoxic
- IC50 (rCPB2.8 [2]): 7110 ± 320 nM

Compound: O=C(/C=C/c1ccc2c(c1)OCO2)c1cc(Cl)ccc1O [Compound 3b, (E)-3-(benzo[d][1, 3]dioxol-5-yl)-1-(5-chloro-2-hydroxyphenyl)prop-2-en-1-one]
- SI (selectivity index) [1]: 61.59
- IC50 [1]: 960 nM
- NIH/3T3 Cells GL50 (NIH/3T3 fibroblasts): 59.13 µM
- IC50 (rCPB2.8 [2]): 18400 ± 1220 nM

Compound: CN(C)c1ccc(/C=C/C(=O)c2cc(Cl)ccc2O)cc1 [Compound 3c, (E)-1-(5-chloro-2-hydroxyphenyl)-3-(4-(dimethylamino)phenyl)prop-2-en-1-one]
- Formation of IEI favoured by binding of the first molecule (rCPB3): sevenfold
- Formation of IESI favoured by binding of the first molecule (rCPB3): 20 fold
- Mechanism (rCPB3): NCPC
- αKi (rCPB3): 141 ± 27 µM
- α (rCPB3): 9.15
- β (rCPB3; [4]): 0.14
- γ (rCPB3; [5]): 0.05
- Formation of IEI favoured by binding of the first molecule (rH84Y): 20 fold
- Formation of IESI favoured by binding of the first molecule (rH84Y): 28 fold
- Mechanism (rH84Y): NCPC
- αKi (rH84Y): 127 ± 20 µM
- α (rH84Y): 4.31
- β (rH84Y; [4]): 0.049
- γ (rH84Y; [5]): 0.036
- IC50 [1]: > 10 µg/mL
- NIH/3T3 Cells GL50 (NIH/3T3 fibroblasts): >828.44 µM
- IC50 (rCPB2.8 [2]): 3970 ± 80 nM
- Formation of IEI favoured by binding of the first molecule (rCPB2.8 [3]): 182 fold
- Formation of IESI favoured by binding of the first molecule (rCPB2.8 [3]): 87 fold
- Mechanism (rCPB2.8 [3]): NCPC
- αKi (rCPB2.8 [3]): 147 ± 28 µM
- Ki (rCPB2.8 [3]; Ki): 100000 ± 18000 nM
- α (rCPB2.8 [3]): 1.47
- β (rCPB2.8 [3]): 0.0055
- γ (rCPB2.8 [3]): 0.0115
- Ki (rCPB2.8 [3]; βKi): 550 ± 100 nM
- Ki (rCPB2.8 [3]; γKi): 1150 ± 210 nM

Compound: COc1ccc(/C=C/C(=O)c2cc(F)ccc2O)cc1 [Compound 4a, (E)-1-(5-fluoro-2-hydroxyphenyl)-3-(4-methoxyphenyl)prop-2-en-1-one]
- IC50 [1]: > 10 µg/mL
- NIH/3T3 Cells GL50 (NIH/3T3 fibroblasts): 901.09 µM
- IC50 (rCPB2.8 [2]): 3350 ± 170 nM

Compound: O=C(/C=C/c1ccc2c(c1)OCO2)c1cc(F)ccc1O [Compound 4b, (E)-3-(benzo[d][1, 3]dioxol-5-yl)-1-(5-fluoro-2-hydroxyphenyl)prop-2-en-1-one]
- IC50 [1]: 1950 nM
- NIH/3T3 Cells GL50 (NIH/3T3 fibroblasts): >873.36 µM
- IC50 (rCPB2.8 [2]): 6610 ± 410 nM

Compound: COc1cccc2c1C(=O)c1c(O)c3c(c(O)c1C2=O)C[C@@](O)(C(=O)CO)C[C@@H]3O[C@H]1C[C@H](N)[C@H](O)[C@H](C)O1 [Doxorubicin, reference compound]
- NIH/3T3 Cells GL50 (NIH/3T3 fibroblasts): 0.05 µM

- IC50 [1]: 800 nM
Compound: N=C(N)c1ccc(OCCCCCOc2ccc(C(=N)N)cc2)cc1 [Pentamidine, reference compound]

Compound: COc1ccc(-c2oc3ccccc3c(=O)c2O)cc1 [f12a, 3-hydroxy-2-(4-methoxyphenyl)-4H-chromen-4-one]
- Mechanism (rCPB3): SLNC
- αKi (rCPB3): 7.50 ± 0.66 µM
- α (rCPB3): 1
- Mechanism (rH84Y): SLNC
- αKi (rH84Y): 11.2 ± 0.5 µM
- α (rH84Y): 1
- IC50 [1]: > 10 µg/mL
- NIH/3T3 Cells GL50 (NIH/3T3 fibroblasts): >931.93 µM
- IC50 (rCPB2.8 [2]): 4720 ± 380 nM
- Formation of IESI favoured by binding of the first molecule (rCPB2.8 [3]): 50 fold
- Mechanism (rCPB2.8 [3]): NCPC
- αKi (rCPB2.8 [3]): 10.7 ± 1.1 µM
- Ki (rCPB2.8 [3]; Ki): 12400 ± 1400 nM
- α (rCPB2.8 [3]): 1
- β (rCPB2.8 [3]): 0.29
- γ (rCPB2.8 [3]): 0.02
- Ki (rCPB2.8 [3]; βKi): 3650 ± 390 nM
- Ki (rCPB2.8 [3]; γKi): 250 ± 30 nM

Compound: CN(C)c1ccc(-c2oc3ccccc3c(=O)c2O)cc1 [f12c, 2-(4-(dimethylamino)phenyl)-3-hydroxy-4H-chromen-4-one]
- SI (selectivity index) [1]: 1039.90
- IC50 [1]: 730 nM
- NIH/3T3 Cells GL50 (NIH/3T3 fibroblasts): 759.13 µM
- IC50 (rCPB2.8 [2]): 10300 ± 390 nM

Compound: COc1ccc(-c2oc3ccc(Cl)cc3c(=O)c2O)cc1 [f13a, 6-chloro-3-hydroxy-2-(4-methoxyphenyl)-4H-chromen-4-one]
- SI (selectivity index) [1]: >764.70
- IC50 [1]: 1080 nM
- NIH/3T3 Cells GL50 (NIH/3T3 fibroblasts): >825.87 µM
- IC50 (rCPB2.8 [2]): 1880 ± 70 nM

Compound: CN(C)c1ccc(-c2oc3ccc(Cl)cc3c(=O)c2O)cc1 [f13c, 6-chloro-2-(4-(dimethylamino)phenyl)-3-hydroxy-4H-chromen-4-one]
- IC50 [1]: > 10 µg/mL
- NIH/3T3 Cells GL50 (NIH/3T3 fibroblasts): >791.76 µM
- IC50 (rCPB2.8 [2]): 14200 ± 650 nM
